# Test system: P12-Ichikawa
# Test: cell viability relative to DMSO control; higher = less cytotoxic
# Details: 48 h
# How it was run: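 NOMO1, SEM and P12-Ichikawa leukemia cells spent at least four passages adapting to each medium before use. They were seeded at 500 cells/well (NOMO1, SEM) or 1000 cells/well (P12-Ichikawa) in 5 μl in 1536-well plates and pin-dosed with library compounds in DMSO at 11 threefold steps from 47 μM down to 0.79 nM. After 48 h at 37°C, CellTiter-Glo One luminescence was read. Viability is reported as a percentage of the DMSO wells on each plate, with cell-free wells as background.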
# [1] = HPLM + 10% dialyzed FBS, 0.000781 µM
# [2] = HPLM + 10% dialyzed FBS, 0.00234 µM
# [3] = HPLM + 10% dialyzed FBS, 0.00702 µM
# [4] = HPLM + 10% dialyzed FBS, 0.0211 µM
# [5] = HPLM + 10% dialyzed FBS, 0.0632 µM
# [6] = HPLM + 10% dialyzed FBS, 0.19 µM
# [7] = HPLM + 10% dialyzed FBS, 0.569 µM
# [8] = HPLM + 10% dialyzed FBS, 1.71 µM
# [9] = HPLM + 10% dialyzed FBS, 5.12 µM
# [10] = HPLM + 10% dialyzed FBS, 15.4 µM
# [11] = HPLM + 10% dialyzed FBS, 46.1 µM
# [12] = RPMI 5 mM glucose + 10% FBS, 0.000781 µM
# [13] = RPMI 5 mM glucose + 10% FBS, 0.00234 µM
# [14] = RPMI 5 mM glucose + 10% FBS, 0.00702 µM
# [15] = RPMI 5 mM glucose + 10% FBS, 0.0211 µM
# [16] = RPMI 5 mM glucose + 10% FBS, 0.0632 µM
# [17] = RPMI 5 mM glucose + 10% FBS, 0.19 µM
# [18] = RPMI 5 mM glucose + 10% FBS, 0.569 µM
# [19] = RPMI 5 mM glucose + 10% FBS, 1.71 µM
# [20] = RPMI 5 mM glucose + 10% FBS, 5.12 µM
# [21] = RPMI 5 mM glucose + 10% FBS, 15.4 µM
# [22] = RPMI 5 mM glucose + 10% FBS, 46.1 µM
# [23] = RPMI 5 mM glucose + 10% dialyzed FBS, 0.000781 µM
# [24] = RPMI 5 mM glucose + 10% dialyzed FBS, 0.00234 µM
# [25] = RPMI 5 mM glucose + 10% dialyzed FBS, 0.00702 µM
# [26] = RPMI 5 mM glucose + 10% dialyzed FBS, 0.0211 µM
# [27] = RPMI 5 mM glucose + 10% dialyzed FBS, 0.0632 µM
# [28] = RPMI 5 mM glucose + 10% dialyzed FBS, 0.19 µM
# [29] = RPMI 5 mM glucose + 10% dialyzed FBS, 0.569 µM
# [30] = RPMI 5 mM glucose + 10% dialyzed FBS, 1.71 µM
# [31] = RPMI 5 mM glucose + 10% dialyzed FBS, 5.12 µM
# [32] = RPMI 5 mM glucose + 10% dialyzed FBS, 15.4 µM
# [33] = RPMI 5 mM glucose + 10% dialyzed FBS, 46.1 µM
Compound,cell viability [1],cell viability [2],cell viability [3],cell viability [4],cell viability [5],cell viability [6],cell viability [7],cell viability [8],cell viability [9],cell viability [10],cell viability [11],cell viability [12],cell viability [13],cell viability [14],cell viability [15],cell viability [16],cell viability [17],cell viability [18],cell viability [19],cell viability [20],cell viability [21],cell viability [22],cell viability [23],cell viability [24],cell viability [25],cell viability [26],cell viability [27],cell viability [28],cell viability [29],cell viability [30],cell viability [31],cell viability [32],cell viability [33]
Cc1nc(Nc2ncc(C(=O)Nc3c(C)cccc3Cl)s2)cc(N2CCN(CCO)CC2)n1,108%,104%,110%,104%,111%,107%,107%,69.6%,14.2%,15.5%,15%,106%,109%,102%,108%,113%,109%,107%,102%,56.8%,21.3%,23.4%,104%,104%,113%,103%,107%,106%,109%,99.3%,45.5%,33.7%,35.3%
CN(C)CCOC(c1ccccc1)c1ccccc1,104%,107%,105%,103%,111%,111%,112%,103%,109%,111%,82.8%,96.1%,105%,99.4%,112%,110%,105%,105%,105%,100%,110%,85.5%,94%,102%,104%,104%,112%,104%,105%,101%,111%,96.8%,83%
C=C(C)[C@@H]1CC[C@]2(C)CC[C@]3(C)[C@H](CC[C@@H]4[C@@]5(C)CC[C@H](O)C(C)(C)[C@@H]5CC[C@]43C)[C@@H]12,108%,115%,116%,113%,127%,134%,128%,125%,126%,126%,124%,–,–,–,–,–,–,–,–,–,–,–,104%,119%,102%,115%,130%,110%,128%,126%,124%,119%,126%
CCOC(=O)Nc1ccc(NCc2ccc(F)cc2)cc1N,112%,116%,116%,121%,115%,110%,107%,112%,101%,98.6%,78.6%,113%,122%,122%,109%,122%,114%,118%,114%,109%,107%,102%,118%,113%,122%,118%,110%,121%,113%,111%,98.3%,103%,87.4%
CN(N=O)C(=O)N[C@H]1C(O)OC(CO)[C@@H](O)[C@@H]1O (stereo partly drawn),91.5%,84.9%,82.8%,84.2%,89.2%,81.9%,85.8%,82.8%,84.2%,60.5%,83%,83.3%,84.2%,76.3%,75.8%,81.3%,85.2%,74.2%,87.6%,72.8%,78.5%,83.7%,70.2%,81.9%,83.9%,74.1%,79.6%,76.6%,80.2%,81.7%,71.3%,71%,77.5%
Cc1ccc(C(C)(O)c2nc3ccccc3s2)c(C)c1 (stereo not drawn),97.8%,110%,103%,108%,106%,114%,82%,109%,79.4%,37.5%,10.2%,91.2%,105%,107%,111%,100%,107%,91%,113%,70.8%,51.2%,8.46%,95.5%,103%,102%,111%,111%,98%,101%,108%,79%,63.9%,13.2%
CC[C@H]1OC(=O)[C@H](C)[C@@H](O[C@H]2C[C@@](C)(OC)[C@@H](O)[C@H](C)O2)[C@H](C)[C@@H](O[C@@H]2O[C@@H](C)C[C@H](N(C)C)[C@H]2O)[C@](C)(O)C[C@@H](C)C(=O)[C@H](C)[C@@H](O)[C@]1(C)O,83.8%,88.3%,94.6%,98.3%,91.2%,89.9%,97.9%,94.6%,84%,57.4%,18.4%,84.9%,87%,85.6%,91.3%,87.6%,90%,91.7%,87.8%,87.3%,91.8%,13.6%,88.4%,84.3%,88.7%,91.8%,84.1%,93.4%,89.3%,92.9%,89.8%,88.4%,28%
NC(=O)N1c2ccccc2CC(=O)c2ccccc21,115%,116%,121%,125%,124%,138%,129%,128%,132%,127%,134%,–,–,–,–,–,–,–,–,–,–,–,–,–,–,–,–,–,–,–,–,–,–
CSC1=CC(=CC=C1)NC2=NC3=C(C=N2)/C=C(C(=O)N3C)/C4=C(Cl)C=CC=C4Cl,102%,95%,101%,98.3%,106%,110%,99.2%,105%,97.4%,95.1%,103%,99.6%,111%,115%,109%,115%,106%,112%,112%,109%,95.5%,102%,110%,109%,110%,90.8%,110%,120%,112%,112%,109%,97.5%,97.7%
COc1cc2nccc(Oc3ccc(NC(=O)Nc4cc(C)on4)c(Cl)c3)c2cc1OC,121%,131%,115%,122%,122%,115%,126%,119%,107%,113%,40.5%,124%,121%,114%,129%,118%,124%,120%,122%,110%,106%,36.7%,–,–,–,–,–,–,–,–,–,–,–
CCOC(=O)C/1=C(C)/NC(=S)NC1C2=CC=CC(=C2)O (stereo not drawn),110%,115%,115%,118%,125%,59%,9.07%,6.6%,5.26%,6.98%,5.13%,106%,110%,128%,128%,112%,42.6%,11%,8.73%,7.18%,8.04%,9.16%,102%,102%,113%,113%,120%,93.4%,21%,14.2%,7.5%,9.98%,11.8%
O=C1\C=C(/OC2=C1C=CC=C2C3=CC=CC=C3)N4CCOCC4,88.3%,93%,95.2%,91.3%,96.3%,90.1%,94.4%,86.5%,87.6%,85.3%,87.1%,89.1%,84.5%,87.6%,89.8%,91.5%,86%,75.4%,76.8%,81.2%,74.1%,67.9%,86.7%,84.4%,84.1%,84.6%,89.7%,84.1%,86%,77.2%,82.4%,80.3%,74.1%
COc1ccc(/C=C\c2cc(OC)c(OC)c(OC)c2)cc1O,21%,15%,12.9%,11.3%,11.9%,9.68%,9.98%,8.29%,5.6%,4.13%,3.74%,27.5%,22%,13.8%,14.2%,11.2%,11.2%,10.4%,10.6%,7.66%,3.98%,2.78%,33.5%,26.7%,20.4%,14.9%,15.3%,14.3%,13.1%,11%,9.65%,7.03%,3.92%
O=C(Cc1cccc(OC(F)(F)F)c1)Nc1ccc(CCCCc2nnc(NC(=O)Cc3ccccn3)s2)nn1,120%,118%,126%,112%,115%,107%,101%,99.4%,103%,91.7%,95.8%,121%,113%,121%,115%,103%,95.6%,83%,83.2%,71.2%,77.8%,76.5%,–,–,–,–,–,–,–,–,–,–,–
C[C@]\1(CCS\C(=N1)N)C2=CC(=C(F)C=C2F)C3=CN=CN=C3,98.2%,101%,112%,103%,110%,115%,115%,122%,106%,15.2%,2.53%,99.3%,103%,119%,117%,113%,114%,121%,113%,117%,30.2%,8.85%,92.1%,109%,104%,109%,110%,108%,101%,98.6%,99.8%,62%,13.4%
Fc1ccc(C(c2ccc(F)cc2)N2CCN(C/C=C/c3ccccc3)CC2)cc1,110%,121%,111%,109%,109%,114%,108%,108%,103%,99.1%,96.5%,118%,112%,109%,121%,116%,119%,112%,107%,110%,106%,104%,113%,104%,121%,109%,102%,110%,114%,106%,104%,98%,95.2%

# Source: the supplement of paper PMC11451515
